# Reference: patent US20150216182A1, “COMPOSITIONS AND METHODS OF THE ATTRACTION AND REPULSION OF INSECTS” (Olfactor Laboratories, Inc., priority 2012, published 2015)
# Structures can show the parent of a compound that is named as a salt. Where two headings read alike, the source gives them in different places.
# Assays:
# [1] = tested on: Aedes aegypti mosquitoes; experiment: netsphere assay; assay type: in vivo; details: baited BG-Sentinel trap, overnight collection; FIG. 3
# Description: The netsphere assay was conducted in a semi-field containment area. The containment area was 1,000 square feet in size and environmental cues such as temperature, humidity, lighting and airflow were controlled to replicate conditions that Aedes aegypti mosquitoes would encounter in the wild. The containment area was conditioned for 2 hours prior to experimentation to allow for equalization of environmental conditions. Fifty female and five male mosquitoes were then released into the chamber and given one hour to acclimate to the environment. Following this, a BG-Sentinel trap (Biogents AG, Regensburg, Germany) was baited with either cyclopentanone, 2-pentanone or 2,4-lutidine and placed in the chamber in the presence of a non-baited BG-Sentinel (as a negative control for trap attraction). The collection was allowed to proceed overnight during which lighting conditions in the chamber were set to mimic those of starlight. The following day, mosquitoes caught in the trap were frozen at −20° C. and counted. These counts were compared to control experiments where CO2 from a tank, at a flow rate of 250 ml/min, was used as bait.
# [2] = tested on: larvae; experiment: larvicidal activity assay; assay type: in vivo; details: for pest or weed control at 0.25 %: read-out: % Lethality with 0.25% compound conc.; for pest or weed control at 100 ppm: read-out: % Lethality at 100 ppm
# Description: A 6-well plate (Corning Life Sciences, Tewksbury, Mass.) is used to test a compound's larvicidal activity. […] After a 24 hour exposure, the number of dead larvae are counted and recorded.
# The results are presented in Table 17 as % lethality (the number of dead larvae divided by the total number of larvae).
# [3] = tested on: cpA neurons; experiment: extracellular single-sensillum electrophysiology: activation of cpA neuronal activity; details: for Class: Table 6, single compounds, increase over baseline cpA neuronal activity; for Comp B Class: component B tested individually; for Class B (activator class of the individual component): Table 15, single component alone, Mod Actv
# [4] = tested on: bed bugs (Cimex lectularius); experiment: bed bug repellency assay; assay type: in vivo; details: compound or combination on filter paper harborage, ten bed bugs
# Outline: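 Ten Cimex lectularius per talc-lined petri dish chose between folded filter-paper harborages treated with isopropyl alcohol alone or compound in isopropyl alcohol […], dried before use. Bugs moved freely 5 min; occupancy beneath each tent recorded, with a solvent-only pairing as control.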
# [5] = tested on: female mosquitoes; experiment: whole plant or invertebrate; details: 2 h; for mortality at 200 µg/mL: read-out: % mortality with 0.2 mg/ml; for mortality at 2000 µg/mL: read-out: % mortality with 2 mg/ml
# [6] = tested on: Aedes aegypti; experiment: landing assay; assay type: in vivo; details: mesh treated with 1% in acetone, FIG. 2
# Source text: Behavior assays were developed to aid in the evaluation of compounds and compositions of the present invention. These assays include the landing assay and the netsphere assay. These assays were utilized to determine the effectiveness of said compounds and compositions with regard to attracting or repelling mosquitoes of the species Aedes aegypti. Due to the highly conserved nature of the carbon dioxide receptor across the order Diptera, the results obtained for Aedes aegypti are likely to be intuitive with regard to other members of the mosquito family Culicidae as well as with regard to other dipteran family members.
# The landing assay is an assay used to test for attraction toward human skin. A human gloved hand with an opening cutout protected by 2 layers of mesh was inserted into a 12×12×12 inch cage of female mosquitoes. The first layer of mesh was used to protect the human from chemical contact as well as mosquito contact. A second layer of mesh was treated with a chemical compound or composition that had been dissolved at a concentration of 1% in acetone and allowed to dry on said mesh for three minutes. This second layer of mesh was placed on top of the first mesh layer. The two mesh layers were separated by outer magnetic strips to hold the layers in place on the glove. This experimental design allows the test subjects, starved female mosquitoes, to be exposed to human skin odors as well as the compound or composition concurrently. The cage contained 30 female and 3 male mosquitoes. The landing of mosquitoes on the treated surface was videotaped over a 5 minute time course and the number of landings during that time period was recorded. Mesh treated with acetone alone was used as a negative control. This experiment was done in triplicate for each compound or composition tested. The results from one such experiment are pictured in FIG. 2.
# [7] = tested on: bed bugs; experiment: bed bug luring assay; assay type: in vivo; details: cottonball with 100 microliters solution, total 100 mg compound(s), 10 bed bugs, overnight
# Description: Assays were conducted to measure the ability of compounds and compound combinations to attract bed bugs. A testing arena habitat comprising a small plastic container was placed inside of a larger, secondary container. The top half inch was removed from two bathroom sized solo cups and each cup was placed on opposite sides of the testing arena habitat, one inch away from the wall. Each outer part of the cup was textured using sandpaper, as bed bugs cannot climb smooth surfaces. A paper towel was used to line the floor of the testing arena habitat. The top, removed portion of one of the solo cups was placed mouth side down in the center of the arena. In one of the cups, a cottonball was placed and treated with 100 microliters of compound or compound combination solution [comprising a total of 100 mg of compound(s).] 10 bed bugs were placed within the center cut off cup top and the testing arena habitat was covered and placed within a dark, climate controlled room overnight. The next day, the number of bed bugs that crawled into the baited cup were recorded and the % attractancy was calculated as the percentage of bugs that crawled into the baited cup as compared to the total number of bed bugs. In the Table, “Att” refers to attractancy and “Cmpd” refers to compound.
# [8] = tested on: female mosquitoes; details: in vivo
# [9] = tested on: cpB and cpC neurons; experiment: extracellular single-sensillum electrophysiology: beta activators; assay type: in vivo, Aedes aegypti; details: for Class A (beta activator, individual component): Table 15, single component alone; for beta activator (stimulates cpB and cpC neuronal activity): single compound
# Source text: Three types of CO2-responsive neurons reside in the maxillary palp of mosquitoes. These include cpA, cpB and cpC neurons. […] These neurons produce spikes with much lower amplitude than those produced by cpA neurons. Although the activity from cpB and cpC neurons cannot easily be distinguished from one another, their collective activity can be distinguished from cpA neurons due to their characteristic spikes. This is useful in the identification of compounds and compositions that only activate or inhibit cpB and cpC neurons or compounds and compositions that activate or inhibit both.
# Carbon dioxide receptor neurons are housed within the basiconic sensilla of the mosquito maxillary palp. While activity from cpA neurons produces the largest amplitude spike, cpB and cpC neurons present in this region are also responsive to skin odors. Activity from these neurons can also be detected through the electrophysiological methods described in Example 1.
# Although the activity from cpB and cpC neurons cannot easily be distinguished from one another, their collective activity can be distinguished from cpA neurons due to their production of spikes with much lower amplitude than those produced by cpA neurons.
# [10] = tested on: cpA neurons; experiment: extracellular single-sensillum electrophysiology: inhibition of CO2-responsive (cpA) neuronal activity; details: for Class: Table 10, single compounds, percent reduction in cpA activity compared to baseline; for Class (inhibitor class of the individual component): Inh = inhibitor
# [11] = 0.25% compound, 24 hour exposure, dead larvae / total larvae
# [12] = 100 ppm compound, 24 hour exposure, dead larvae / total larvae
SMILES,"pest or weed control at 0.25 % [2, 11] [%]","pest or weed control at 100 ppm [2, 12] [%]",Class [3],% Rep (bed bug repellency) [4] [%],mortality at 200 µg/mL [5] [%],mortality at 2000 µg/mL [5] [%],% Att (bed bug attractancy) [7] [%],beta activator (stimulates cpB and cpC neuronal activity) [9],further results
"Cc1ccnc(C)c1 [OLI0001, 2,4-lutidine]",100,0,Strong Activator (strong activators yield an increase in activity that is >60 spk/sec over baseline neuronal activity),39,0,0,,,behaviour in netsphere assay (attractant or repellent) [1]: acted as a repellent; effect on CO2-receptor activity (FIG. 1) ([3]; 1% concentration in paraffin oil): activator; activator class of single compound [3]: strong activator (spike rate of 60-100 spk/sec over the baseline activity of the neuron)
"CCc1cnccn1 [OLI0002, 2-ethylpyrazine]",50,0,Strong Activator (strong activators yield an increase in activity that is >60 spk/sec over baseline neuronal activity),49,0,0,,,number of landings ([6]; 5 minute time course): 12 landings; behaviour in landing assay (lure or repellent) [6]: repellent; activator class of single compound [3]: activator
"COc1cnccn1 [OLI0003, 2-methoxypyrazine]",100,0,Strong Activator (strong activators yield an increase in activity that is >60 spk/sec over baseline neuronal activity),22,0,0,30,,
"CSC(C)=O [OLI0025, methanethiol acetate]",,,Moderate Activator (Moderate activators yield an increase in neuronal activity that is between 40 and 60 spk/sec over baseline neuronal activity),,,,20,,"% Lethality with 0.25% compound conc. [2, 11]: 100% lethal; % Lethality at 100 ppm [2, 12]: 0% lethal; Comp B Class ([3]; Table 9): Mod; Class B (activator class of the individual component) [3]: Mod; % mortality with 0.2 mg/ml [8]: 0%; % mortality with 2 mg/ml [8]: 0%"
"C/C=C/C(=O)OC [OLI0026, methyl crotonate]",87.5,0,Moderate Activator (Moderate activators yield an increase in neuronal activity that is between 40 and 60 spk/sec over baseline neuronal activity),38,0,0,20,,Comp B Class ([3]; Table 9): Mod; Class B (activator class of the individual component) [3]: Mod
"COC(=O)CCC(C)=O [OLI0027, methyl levulinate]",50,0,Moderate Activator (Moderate activators yield an increase in neuronal activity that is between 40 and 60 spk/sec over baseline neuronal activity),20,0,0,10,beta activators,"Class A (beta activator, individual component) ([9]; Beta Actv): Beta; Comp A Class ([3]; Table 9, component A tested individually): Mod; activator class of single compound [3]: moderate cpA activator"
"CCCOC=O [OLI0063, propyl formate]",,,Mild Activator (mild activators yield an increase in neuronal activity that is between 20 and 40 spk/sec over baseline neuronal activity),,0,0,30,,pest or weed control at 100 ppm ([2]; 24 h): 0%; pest or weed control at 0.25 % ([2]; 24 h): 0%; Comp B Class ([3]; Table 9): Mild
"COc1nccnc1C [OLI0070, 2-methoxy-3-methylpyrazine]",100,0,,,0,0,10,,Class [10]: Strong Inhibitor (strong inhibitors (reducing activity >60%))
"CC/C=C\CCCCO [OLI0084, cis-5-octen-1-ol]",100,0,,82,0,95,,beta activator,"Class (beta activator, individual component) ([9]; Table 16, single component alone, Beta Actv): Beta; Class [10]: Mild Inhibitor (mild inhibitors (reducing activity by 20-40%)); Class (inhibitor class of the individual component) ([10]; Table 13, single component alone): Mild; Class (inhibitor class of the individual component) ([10]; Table 16, single component alone): Mild"
"CCCCCCOC=O [OLI0097, hexyl formate]",,,,44,0,0,30,beta activators,"Class A (beta activator, individual component) ([9]; Beta Actv): Beta; pest or weed control at 100 ppm ([2]; 24 h): 0%; pest or weed control at 0.25 % ([2]; 24 h): 5%"
"CCC(=O)OCCC(C)C [OLI0099, isoamyl propionate]",0,0,,17,0,0,10,beta activators,"Class A (beta activator, individual component) ([9]; Beta Actv): Beta"
